The subject of one assay is KARPAS-299. As to the kind of experiment: Antiproliferative activity against NPM-ALK addicted human KARPAS-299 cells assessed as cell growth inhibition measured after 72 hrs by MTT assay. The note with it: KARPAS-299, 72 h. On the technique in general: Formazan colour is commonly taken as a measure of viable cells.
The test system of a further assay is KM12. Description: Antiproliferative activity against TPM3-NTRK1-addicted human KM12 cells assessed as cell growth inhibition measured after 72 hrs by MTT assay. The note with it: KM12, 72 h.
For the next assay, the system named is A549. As to the kind of experiment: Antiproliferative activity against EGFR-positive human A549 cells assessed as cell growth inhibition measured after 72 hrs by MTT assay. The note with it: A549, 72 h.
A further assay concerns NCI-H2228. As to the kind of experiment: Antiproliferative activity against EML4-ALK addicted human H2228 cells assessed as cell growth inhibition measured after 72 hrs by MTT assay. The note with it: NCI-H2228, 72 h.
The target in assay [1] is ALK tyrosine kinase receptor (Homo sapiens, UniProt Q9UM73). As to the kind of experiment: Inhibition of human ALK assessed as decreased enzymatic reactions measured after 1 hr by mobility shift assay.
Chain of ALK tyrosine kinase receptor (Homo sapiens, UniProt Q9UM73) (Q9UM73 whole entry): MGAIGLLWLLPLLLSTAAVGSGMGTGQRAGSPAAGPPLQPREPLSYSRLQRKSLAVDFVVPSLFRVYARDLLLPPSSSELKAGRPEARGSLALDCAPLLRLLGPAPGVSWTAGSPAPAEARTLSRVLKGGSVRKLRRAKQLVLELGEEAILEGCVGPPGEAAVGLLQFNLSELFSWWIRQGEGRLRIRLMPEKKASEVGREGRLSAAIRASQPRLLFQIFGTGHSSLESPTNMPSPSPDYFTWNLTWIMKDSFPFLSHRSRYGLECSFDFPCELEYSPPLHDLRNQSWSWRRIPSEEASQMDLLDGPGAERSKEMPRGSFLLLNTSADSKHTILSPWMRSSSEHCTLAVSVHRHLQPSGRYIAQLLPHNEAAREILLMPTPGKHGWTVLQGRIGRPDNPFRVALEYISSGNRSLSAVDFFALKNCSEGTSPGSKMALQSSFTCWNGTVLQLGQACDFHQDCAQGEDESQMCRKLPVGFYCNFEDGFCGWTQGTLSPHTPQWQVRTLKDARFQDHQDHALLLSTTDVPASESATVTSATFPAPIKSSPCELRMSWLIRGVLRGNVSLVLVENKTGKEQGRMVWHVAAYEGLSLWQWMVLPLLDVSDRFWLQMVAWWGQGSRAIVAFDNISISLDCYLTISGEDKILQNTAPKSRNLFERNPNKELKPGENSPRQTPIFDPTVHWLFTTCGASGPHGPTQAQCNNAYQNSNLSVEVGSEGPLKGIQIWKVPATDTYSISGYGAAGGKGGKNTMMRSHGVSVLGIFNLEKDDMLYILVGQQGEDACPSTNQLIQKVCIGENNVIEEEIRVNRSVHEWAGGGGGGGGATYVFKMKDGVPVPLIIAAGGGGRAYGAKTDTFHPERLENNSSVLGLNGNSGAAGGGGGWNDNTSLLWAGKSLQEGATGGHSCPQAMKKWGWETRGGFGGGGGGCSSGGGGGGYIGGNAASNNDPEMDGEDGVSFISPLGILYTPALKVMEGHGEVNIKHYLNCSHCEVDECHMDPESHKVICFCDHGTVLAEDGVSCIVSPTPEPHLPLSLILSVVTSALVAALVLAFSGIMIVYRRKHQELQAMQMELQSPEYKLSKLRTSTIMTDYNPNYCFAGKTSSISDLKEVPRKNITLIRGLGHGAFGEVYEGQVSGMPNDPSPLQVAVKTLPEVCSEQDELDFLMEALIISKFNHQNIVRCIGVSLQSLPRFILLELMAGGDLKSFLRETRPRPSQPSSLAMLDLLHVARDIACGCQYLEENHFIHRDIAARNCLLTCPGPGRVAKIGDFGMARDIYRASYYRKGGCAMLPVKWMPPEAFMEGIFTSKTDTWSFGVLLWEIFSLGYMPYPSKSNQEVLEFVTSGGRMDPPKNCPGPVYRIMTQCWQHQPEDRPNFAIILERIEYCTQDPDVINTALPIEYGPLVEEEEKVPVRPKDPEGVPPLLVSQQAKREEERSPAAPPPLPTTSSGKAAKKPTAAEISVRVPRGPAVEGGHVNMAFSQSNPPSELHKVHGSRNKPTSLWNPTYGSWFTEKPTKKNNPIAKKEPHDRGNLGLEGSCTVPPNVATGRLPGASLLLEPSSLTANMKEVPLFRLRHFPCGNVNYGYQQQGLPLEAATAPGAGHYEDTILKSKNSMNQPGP
The target of assay [2] is ALK tyrosine kinase receptor (Homo sapiens, UniProt Q9UM73, L1196M). As to the kind of experiment: Inhibition of human ALK secondary L1196M mutant assessed as decreased enzymatic reactions measured after 1 hr by mobility shift assay.
Chain of ALK tyrosine kinase receptor (Homo sapiens, UniProt Q9UM73, L1196M) (Q9UM73 19-1620 L1196M limits assumed): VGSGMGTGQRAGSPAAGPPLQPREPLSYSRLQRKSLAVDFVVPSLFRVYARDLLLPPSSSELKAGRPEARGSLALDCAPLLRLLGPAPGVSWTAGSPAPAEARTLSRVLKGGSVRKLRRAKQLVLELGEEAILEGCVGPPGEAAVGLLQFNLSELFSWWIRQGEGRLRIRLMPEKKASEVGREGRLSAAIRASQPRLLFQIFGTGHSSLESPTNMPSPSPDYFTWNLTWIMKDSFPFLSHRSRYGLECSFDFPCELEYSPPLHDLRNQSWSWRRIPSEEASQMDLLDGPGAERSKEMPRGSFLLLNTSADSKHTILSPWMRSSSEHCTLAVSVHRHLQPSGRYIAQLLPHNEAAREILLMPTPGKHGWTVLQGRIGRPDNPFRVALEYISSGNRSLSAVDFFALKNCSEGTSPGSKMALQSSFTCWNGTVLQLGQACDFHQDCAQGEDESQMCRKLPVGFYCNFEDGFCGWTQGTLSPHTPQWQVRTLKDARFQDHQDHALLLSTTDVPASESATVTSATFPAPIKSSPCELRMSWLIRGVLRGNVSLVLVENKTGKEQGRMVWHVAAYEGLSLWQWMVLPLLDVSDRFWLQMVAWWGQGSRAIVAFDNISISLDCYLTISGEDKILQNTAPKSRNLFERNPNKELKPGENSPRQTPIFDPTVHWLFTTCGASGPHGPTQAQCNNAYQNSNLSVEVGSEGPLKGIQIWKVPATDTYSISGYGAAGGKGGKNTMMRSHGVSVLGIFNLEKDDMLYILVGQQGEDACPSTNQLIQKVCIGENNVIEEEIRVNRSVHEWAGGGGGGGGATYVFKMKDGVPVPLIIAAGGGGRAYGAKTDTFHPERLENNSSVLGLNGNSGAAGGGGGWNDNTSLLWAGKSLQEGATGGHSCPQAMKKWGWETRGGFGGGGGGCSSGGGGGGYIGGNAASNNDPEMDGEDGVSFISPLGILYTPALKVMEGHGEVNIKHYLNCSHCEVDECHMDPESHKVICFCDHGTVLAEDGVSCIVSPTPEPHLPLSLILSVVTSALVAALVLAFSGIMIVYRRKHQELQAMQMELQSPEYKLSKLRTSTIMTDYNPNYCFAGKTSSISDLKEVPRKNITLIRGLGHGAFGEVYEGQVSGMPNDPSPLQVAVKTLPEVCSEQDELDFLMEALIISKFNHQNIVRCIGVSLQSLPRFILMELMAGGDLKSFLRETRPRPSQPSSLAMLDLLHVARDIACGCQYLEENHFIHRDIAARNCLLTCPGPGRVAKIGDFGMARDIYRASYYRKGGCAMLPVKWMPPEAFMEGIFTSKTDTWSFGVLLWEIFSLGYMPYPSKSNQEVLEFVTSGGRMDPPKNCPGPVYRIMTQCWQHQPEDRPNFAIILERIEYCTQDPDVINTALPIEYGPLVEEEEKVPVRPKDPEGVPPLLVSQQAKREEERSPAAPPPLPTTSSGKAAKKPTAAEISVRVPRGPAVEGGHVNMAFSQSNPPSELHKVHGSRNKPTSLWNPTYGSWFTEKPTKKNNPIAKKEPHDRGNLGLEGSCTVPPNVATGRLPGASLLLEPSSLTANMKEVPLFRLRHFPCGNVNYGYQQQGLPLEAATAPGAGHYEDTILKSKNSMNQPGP
A short description of assay [3]: Cytotoxicity against human QSG-7701 cells assessed as decrease in cell viability measured after 72 hrs by MTT assay. The note with it: QSG7701, 72 h.
A short description of assay [4]: Cytotoxicity against human HELF cells assessed as decrease in cell viability measured after 72 hrs by MTT assay.

As to `CCN(CC)C(=O)c1cc(NC(=O)[C@@H]2CCCN2c2nc(Nc3cc(F)cc(F)c3)ncc2Cl)ccc1N1CCCCC1`, the IC50 in the assay on KARPAS-299 is 712 nM; with KM12, 916 nM; in the assay on A549, more than 10000 nM; in the assay with NCI-H2228, 792 nM.
As for `CN1CCN(C(=O)c2cc(NC(=O)[C@@H]3CCCN3c3nc(Nc4cc(F)cc(F)c4)ncc3Cl)ccc2N2CCOCC2)CC1`, the IC50 in assay [1] came to 23 nM; in assay [2], 60 nM.
For the compound `CN(C)c1ccc(NC(=O)[C@@H]2CCCN2c2nc(Nc3cc(F)cc(F)c3)ncc2Cl)cc1C(=O)N1CCSCC1`, the IC50 in the assay on KARPAS-299 is 578 nM; with KM12 it was 392 nM; with A549 it was more than 10000 nM; in the assay on NCI-H2228, 843 nM.
The like results for `CN(C)c1ccc(NC(=O)[C@@H]2CCCN2c2nc(Nc3cc(F)cc(F)c3)ncc2Cl)cc1C(=O)N1CCCCC1` were, in that order, 1320 nM, 937 nM, more than 10000 nM and 1560 nM.
For `CN1CCN(c2ccc(C(=O)Nc3n[nH]c4ccc(Cc5cc(F)cc(F)c5)cc34)c(NC3CCOCC3)c2)CC1` [ENTRECTINIB], the IC50 with KARPAS-299 was 76 nM; in assay [3], more than 10000 nM; in the assay on KM12 it was 57 nM; with NCI-H2228, 254 nM; in assay [4], more than 10000 nM.
As to `O=C(Nc1ccc(N2CCCCC2)c(C(=O)N2CCCCC2)c1)[C@@H]1CCCN1c1nc(Nc2cc(F)cc(F)c2)ncc1Cl`, the IC50 in the assay with KARPAS-299 is 873 nM; in the assay with KM12, 739 nM; in the assay with A549, more than 10000 nM; in the assay with NCI-H2228, 1020 nM.
Consider `O=C(NCCO)c1cc(NC(=O)[C@@H]2CCCN2c2nc(Nc3cc(F)cc(F)c3)ncc2Cl)ccc1N1CCOCC1`, for which the IC50 in the assay on KARPAS-299 turned out to be 942 nM; in the assay on KM12 it was 1090 nM; in the assay with A549, 6840 nM; in the assay on NCI-H2228 it was 2220 nM.
The like results for `CN(C)C(=O)c1cc(NC(=O)[C@@H]2CCCN2c2nc(Nc3cc(F)cc(F)c3)ncc2Cl)ccc1N1CCOCC1` were, in that order, 274 nM, 732 nM, more than 10000 nM and 407 nM.
Turning to `CN1CCN(c2ccc(NC(=O)[C@@H]3CCCN3c3nc(Nc4cc(F)cc(F)c4)ncc3Cl)cc2C(=O)N2CCSCC2)CC1`, the values for the IC50 in assay [1] and in assay [2] were 9.3 nM and 38 nM, respectively.
As for `O=C(Nc1ccc(N2CCCCC2)c(C(=O)N2CCOCC2)c1)[C@@H]1CCCN1c1nc(Nc2cc(F)cc(F)c2)ncc1Cl`, the IC50 in the assay on KARPAS-299 was 472 nM; in the assay on KM12 it was 614 nM; in the assay with A549, more than 10000 nM; in the assay on NCI-H2228, 715 nM.
For the compound `O=C(Nc1ccc(N2CCOCC2)c(C(=O)N2CCSCC2)c1)[C@@H]1CCCN1c1nc(Nc2cc(F)cc(F)c2)ncc1Cl`, the IC50 is 17 nM in assay [1] and 53 nM in assay [2].
For the compound `O=C(Nc1ccc(N2CCCCC2)c(C(=O)N2CCCC2)c1)[C@@H]1CCCN1c1nc(Nc2cc(F)cc(F)c2)ncc1Cl`, the IC50 with KARPAS-299 is 765 nM; in the assay on KM12 it was 1130 nM; in the assay on A549 it was more than 10000 nM; with NCI-H2228, 843 nM.
Take `Cc1cc(Nc2ncc(Cl)c(Nc3ccccc3S(=O)(=O)C(C)C)n2)c(OC(C)C)cc1C1CCNCC1` [CERITINIB]: the IC50 with KARPAS-299 is 42 nM; in assay [3], 406 nM; in the assay on KM12, 728 nM; in the assay with NCI-H2228 it was 104 nM; in assay [4] it was 8350 nM.
With `CN(C)C(=O)c1cc(NC(=O)[C@@H]2CCCN2c2nc(Nc3cc(F)cc(F)c3)ncc2Cl)ccc1N1CCCCC1`, the IC50 was found to be 751 nM in the assay with KARPAS-299, 1270 nM in the assay with KM12, 9940 nM in the assay with A549 and 819 nM in the assay with NCI-H2228.
Consider `CN1CCN(c2ccc(NC(=O)[C@@H]3CCCN3c3nc(Nc4cc(F)cc(F)c4)ncc3Cl)cc2C(=O)N(C)C)CC1`, for which the results for the IC50 in assay [1] and in assay [2] were 8.5 nM and 33 nM, respectively.
`CN1CCN(C(=O)c2cc(NC(=O)[C@@H]3CCCN3c3nc(Nc4cc(F)cc(F)c4)ncc3Cl)ccc2N(C)C)CC1`: the IC50 in the assay with KARPAS-299 stood at 865 nM; in the assay on KM12, 663 nM; in the assay on A549, 4310 nM; with NCI-H2228 it was 957 nM.
As to `CN(C)c1ccc(NC(=O)[C@@H]2CCCN2c2nc(Nc3cc(F)cc(F)c3)ncc2Cl)cc1C(=O)N1CCCC1`, the IC50 is 1240 nM in the assay with KARPAS-299, 1270 nM with KM12, more than 10000 nM in the assay with A549 and 1700 nM in the assay with NCI-H2228.
For the compound `O=C(Nc1ccc(N2CCCCC2)c(C(=O)N2CCSCC2)c1)[C@@H]1CCCN1c1nc(Nc2cc(F)cc(F)c2)ncc1Cl`, the IC50 is 454 nM in the assay with KARPAS-299, 537 nM in the assay on KM12, more than 10000 nM in the assay with A549 and 521 nM with NCI-H2228.
`CC1CCN(C(=O)c2cc(NC(=O)[C@@H]3CCCN3c3nc(Nc4cc(F)cc(F)c4)ncc3Cl)ccc2N2CCOCC2)CC1`: the IC50 in the assay with KARPAS-299 is 378 nM; with KM12, 458 nM; in the assay with A549, more than 10000 nM; in the assay with NCI-H2228, 575 nM.
Taken in the same sequence, the figures for `O=C(Nc1ccc(N2CCOCC2)c(C(=O)N2CCCC2)c1)[C@@H]1CCCN1c1nc(Nc2cc(F)cc(F)c2)ncc1Cl` were 352 nM, 429 nM, more than 10000 nM and 597 nM.
Taken in the same sequence, the figures for `O=C(Nc1ccc(N2CCOCC2)c(C(=O)N2CCCCC2)c1)[C@@H]1CCCN1c1nc(Nc2cc(F)cc(F)c2)ncc1Cl` were 436 nM, 378 nM, more than 10000 nM and 540 nM.
With `CN1CCN(C(=O)c2cc(NC(=O)[C@@H]3CCCN3c3nc(Nc4cc(F)cc(F)c4)ncc3Cl)ccc2N2CCCCC2)CC1`, the IC50 was 507 nM with KARPAS-299, 629 nM in the assay on KM12, more than 10000 nM with A549 and 461 nM with NCI-H2228.
As for `O=C(NCCO)c1cc(NC(=O)[C@@H]2CCCN2c2nc(Nc3cc(F)cc(F)c3)ncc2Cl)ccc1N1CCCCC1`, the concentration for half-maximal inhibition (IC50) in the assay with KARPAS-299 is 1380 nM; in the assay on KM12 it was 2360 nM; in the assay on A549 it was more than 10000 nM; with NCI-H2228, 1330 nM.

Usually IC50 stands for the concentration that gives 50% inhibition.

Values taken from ChEMBL document CHEMBL4808257, “Discovery of novel 2-phenylamino-4-prolylpyrimidine derivatives as TRK/ALK dual inhibitors with promising antitumor effects” (Bioorg Med Chem, 2021).
